What all share (format): in vivo
One data set has as its system Oryza sativa (ORYSA). As to conditions: crop plant compatibility; for Pre-emergence action against ORYSA: 20 g/ha, effect vs untreated controls; for Pre-emergence action against ORYSA in %: 80 g/ha, in comparison to untreated controls. In short, it runs like this: (§1)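 Crop injury rated visually in percent against untreated plants roughly 3 weeks after treatment (0% no effect, 100% plants dead). Compounds, as WP or EC with 0.5% additive in 600 l/ha water, were applied to the covering soil right after sowing; greenhouse growth. Suffixes a, b, c denote different dosages.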

A further data set deals with Zea mays (ZEAMX). Conditions: crop plant compatibility; for Pre-emergence action against ZEAMX: 20 g/ha, effect vs untreated controls; for Pre-emergence action against ZEAMX in %: 80 g/ha, in comparison to untreated controls. A digest of the protocol: as §1
The next data set has as its system Glycine max (GLXMA). Conditions: 20 g/ha; crop plant compatibility, effect vs untreated controls. In short, it runs like this:
as §1

The test system of data set [1] is Triticum aestivum (TRZAS). As to conditions: crop plant compatibility; for Pre-emergence action against TRZAS: 20 g/ha, effect vs untreated controls. A digest of the protocol:
as §1

The subject of the next data set is Brassica napus (BRSNW). Conditions: 20 g/ha, crop plant compatibility, in comparison to untreated controls. In short, it runs like this: as §1

Take `CCOC(=O)COc1nn(-c2ccccn2)c(-c2ccc(F)nc2)c1Br` [Example I-02]: the “Pre-emergence action against ORYSA” value in the data set with Oryza sativa (ORYSA) was 0%. The “Pre-emergence action against ZEAMX” value in the data set on Zea mays (ZEAMX) stood at 0%.

For the compound `C[C@@H](Oc1nn(-c2ncccc2F)c(-c2ccc(F)nc2)c1Br)C(=O)O` [Example I-10], the “Pre-emergence action against ZEAMX in %” value in the data set with Zea mays (ZEAMX) amounted to 20%.

For `O=C(O)COc1nn(-c2ncccc2F)c(-c2ccc(F)nc2)c1Br` [Example I-17], the “Pre-emergence action against GLXMA” value in the data set with Glycine max (GLXMA) stood at 10%. Besides, the “Pre-emergence action against ORYSA” value in the data set with Oryza sativa (ORYSA) is 0%. Moreover, in data set [1], the “Pre-emergence action against TRZAS” value amounted to 10%.

As for `CCOC(=O)COc1nn(-c2nc(F)ccc2F)c(-c2cncc(F)c2)c1Br` [Example I-193], in the data set on Oryza sativa (ORYSA), the “Pre-emergence action against ORYSA in %” value worked out at 20%.

On to `COCCOC(=O)COc1nn(-c2ccccn2)c(-c2ccc(F)nc2)c1Br` [Example I-96], for which, in the data set on Oryza sativa (ORYSA), the “Pre-emergence action against ORYSA in %” value was 20%. Moreover, the “Pre-emergence action against ZEAMX in %” value in the data set with Zea mays (ZEAMX) worked out at 0%.

As for `COC(=O)COc1nn(-c2ncccc2F)c(-c2cncc(F)c2)c1Br` [Example I-16], in the data set on Brassica napus (BRSNW), the “Pre-emergence action against BRSNW in %” value is 10%. Besides, in the data set with Oryza sativa (ORYSA), the “Pre-emergence action against ORYSA” value was 20%. Also, the “Pre-emergence action against TRZAS” value in data set [1] came out at 10%. The “Pre-emergence action against TRZAS in %” value in data set [1] (pre-emergence, 80 g/ha, in comparison to untreated controls) is recorded as 20%. In addition, in the data set on Zea mays (ZEAMX), the “Pre-emergence action against ZEAMX” value is recorded as 10%.

These data come from patent publication US20240041042A1, “1-(PYRIDYL)-5-AZINYLPYRAZOLE DERIVATIVES, AND THEIR USE FOR CONTROL OF UNDESIRED PLANT GROWTH” (Bayer Aktiengesellschaft, priority 2020, published 2024).
